Structures can show the parent of a compound that is named as a salt.
Test system: CUMS rats
Experiment: Rat chronic unpredictable mild stress depression model (CUMS) test, sucrose preference
Assay type: in vivo, Wistar rats
Conditions: for effect on sucrose water intake of CUMS rats: 0.375 mg/kg
Method: Rat Chronic Unpredictable Mild Stress Depression Model (CUMS) Test
Variety: Wistar rats; Sex: male; Body Weight: 200 g.
Compounds I and II (being compounds of Examples 1 and 5 respectively), venlafaxine hydrochloride
Experimental method comprises starting CUMS program after adaptively breeding the rats for 1 week.
1) Sucrose preference experiment: all animals were fed with 1% sucrose water within the first 24 h; during the subsequent 24 h, all the animals were simultaneously fed with 1% sucrose water and common drinking water, then fasted with water deprivation for 23 h. Subsequently sucrose preference experiment was performed: simultaneously feeding the animals with 1% sucrose water and common drinking water, and measuring the drinking amounts of sucrose water and common drinking water for animals in 1 h by weighing the drinking water bottles. The animals were grouped evenly according to the animal body weight, liquid consumption amount and sucrose water consumption, and subjected to chronic unpredictable mild stress stimulation.
2) CUMS experiment: the rats were alternately given tens of stress stimulation factors each week, so that the rats cannot predict the stimulation duration of each stress factor and the stimulation to be given subsequently. The stimulation factor includes: flash stimulation, noise stimulation, rat cage inclination; and strange smell environment feeding, fasting, water deprivation.
3) Detection method comprising: detecting liquid consumption amount after food-fasting and water-deprivation for 21 h each week, recording the body weight, total liquid intake, water intake and sucrose water intake of each animal, and calculating sucrose water preference percentage (preference=(sucrose water intake/total liquid intake)×100%) and sucrose water consumption amount per gram of body weight of each rat.

[1] = 1.5 mg/kg and 0.75 mg/kg, after the fifth week (P<0.01 or 0.05)

SMILES	sucrose water intake of CUMS rats as compared to the model group (20 mg/kg, during the fifth week (P<0.01))	effect on sucrose water intake of CUMS rats	sucrose water intake of CUMS rats as compared to the model group [1]
COc1ccc(C(CN(C)C)C2(O)CCCCC2)cc1 (centres unmarked) [Venlafaxine, venlafaxine hydrochloride, reference compound]	statistically significant difference	–	–
CC(C)=CCCC(C)(O)C1CCC2(C)C1C(=NO)CC1C3(C)CCC(=NO)C(C)(C)C3CCC12C (centres unmarked) [Compound I]	–	not significant	statistically significant difference
CC(C)(O)C1CCC(C)(C2CCC3(C)C2C(=NO)CC2C4(C)CCC(=NO)C(C)(C)C4CCC23C)O1 (centres unmarked) [Compound II]	–	not significant	statistically significant difference
